Measurements: patent US20140243335A1, “SUBSTITUTED HYDOXAMIC ACIDS AND USES THEREOF” (Millennium Pharmaceuticals, Inc., priority 2010, published 2014)

Biological target: T1, purified human HDAC6 (Homo sapiens, UniProt Q9UBN7)
T1 construct: purchased BPS Bioscience 5006
T1 sequence (Q9UBN7 1-1215): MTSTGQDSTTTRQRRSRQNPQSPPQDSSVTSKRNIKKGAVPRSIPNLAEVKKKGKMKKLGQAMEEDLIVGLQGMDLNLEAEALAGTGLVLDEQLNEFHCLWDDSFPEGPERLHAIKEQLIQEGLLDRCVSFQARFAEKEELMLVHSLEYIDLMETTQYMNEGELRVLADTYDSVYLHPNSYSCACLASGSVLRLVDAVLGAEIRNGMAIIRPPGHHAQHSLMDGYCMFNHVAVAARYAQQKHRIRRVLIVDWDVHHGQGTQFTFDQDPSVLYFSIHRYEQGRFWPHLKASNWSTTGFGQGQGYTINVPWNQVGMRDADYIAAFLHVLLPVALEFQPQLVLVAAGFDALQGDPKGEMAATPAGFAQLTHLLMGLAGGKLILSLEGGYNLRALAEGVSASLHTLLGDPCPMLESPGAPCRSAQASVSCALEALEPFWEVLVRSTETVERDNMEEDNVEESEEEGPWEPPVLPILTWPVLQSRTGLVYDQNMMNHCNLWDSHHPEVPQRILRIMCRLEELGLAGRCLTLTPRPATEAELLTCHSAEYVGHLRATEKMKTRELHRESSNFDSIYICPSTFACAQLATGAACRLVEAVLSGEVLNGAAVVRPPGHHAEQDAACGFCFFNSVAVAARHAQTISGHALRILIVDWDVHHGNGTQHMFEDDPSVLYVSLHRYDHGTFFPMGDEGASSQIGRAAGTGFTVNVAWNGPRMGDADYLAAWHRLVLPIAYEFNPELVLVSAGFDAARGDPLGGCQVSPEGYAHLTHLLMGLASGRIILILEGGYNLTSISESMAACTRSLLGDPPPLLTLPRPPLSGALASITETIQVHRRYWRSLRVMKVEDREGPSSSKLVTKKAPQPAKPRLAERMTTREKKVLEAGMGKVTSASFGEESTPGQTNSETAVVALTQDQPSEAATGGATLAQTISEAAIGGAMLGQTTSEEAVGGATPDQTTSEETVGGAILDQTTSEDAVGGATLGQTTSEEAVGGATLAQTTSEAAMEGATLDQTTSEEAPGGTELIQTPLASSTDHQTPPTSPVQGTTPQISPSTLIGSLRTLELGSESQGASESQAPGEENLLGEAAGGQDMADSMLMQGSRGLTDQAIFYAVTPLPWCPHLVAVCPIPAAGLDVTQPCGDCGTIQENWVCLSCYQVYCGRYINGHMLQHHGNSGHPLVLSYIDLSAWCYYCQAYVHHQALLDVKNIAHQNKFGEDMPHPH
Experiment: HDAC6 Enzyme Assay
Assay type: biochemical
Settings: HDAC6 inhibition at a compound concentration of 0.412 μM; read-out: Percent Inhibition at 0.412 μM

Compound | inhibition at 0.412 µM
O=C(NO)c1ccc2c(c1)CCC(Oc1ccnc(Nc3ccc(Cl)cc3)c1)C2 (stereo not shown) [Compound I-228, 6-({2-[(4-chlorophenyl)amino]pyridin-4-yl}oxy)-N-hydroxy-5,6,7,8-tetrahydronaphthalene-2-carboxamide] | 90%
CC1(C(=O)Nc2cc(OC3CCc4cc(C(=O)NO)ccc4C3)ccn2)CCNCC1 (stereo not shown) [Compound I-148, N-[4-({6-[(hydroxyamino)carbonyl]-1,2,3,4-tetrahydronaphthalen-2-yl}oxy)pyridin-2-yl]-4-methylpiperidine-4-carboxamide] | 93%
CC(C)(C)CC(=O)NC1CCCc2cc(C(=O)NO)ccc21 (stereo not shown) [Compound I-5, 5-[(3,3-dimethylbutanoyl)amino]-N-hydroxy-5,6,7,8-tetrahydronaphthalene-2-carboxamide] | 11%
O=C(NO)c1ccc2c(c1)CCC(c1ccccc1)C2 (stereo not shown) [Compound I-100, N-hydroxy-6-phenyl-5,6,7,8-tetrahydronaphthalene-2-carboxamide] | 62%
O=C(NO)c1ccc2c(c1)C1CCC2N1C(=O)c1ccccn1 (stereo not shown) [Compound I-210, N-hydroxy-9-(pyridin-2-ylcarbonyl)-1,2,3,4-tetrahydro-1,4-epiminonaphthalene-6-carboxamide] | 28%
Cc1cc(C(=O)NC2CCCc3cc(C(=O)NO)ccc32)n(C(C)(C)C)n1 (stereo not shown) [Compound I-19, 1-tert-butyl-N-{6-[(hydroxyamino)carbonyl]-1,2,3,4-tetrahydronaphthalen-1-yl}-3-methyl-1H-pyrazole-5-carboxamide] | 20%
O=C(NO)c1ccc2c(c1)CCCC2NC(=O)c1cccc(C(F)(F)F)c1 (stereo not shown) [Compound I-8, N-hydroxy-5-{[3-(trifluoromethyl)benzoyl]amino}-5,6,7,8-tetrahydronaphthalene-2-carboxamide] | 33%
O=C(NO)c1ccc2c(c1)CCC(CCc1cccc(F)c1)C2 (stereo not shown) [Compound I-103, 6-[2-(3-fluorophenyl)ethyl]-N-hydroxy-5,6,7,8-tetrahydronaphthalene-2-carboxamide] | 63%
CC(C)(C)c1ccc(C(=O)N2C3CCC2c2cc(C(=O)NO)ccc23)cc1 (stereo not shown) [Compound I-200, 9-(4-tert-butylbenzoyl)-N-hydroxy-1,2,3,4-tetrahydro-1,4-epiminonaphthalene-6-carboxamide] | 67%
O=C(NO)c1ccc2c(c1)CCC(c1ccc(Cl)cc1)C2 (stereo not shown) [Compound I-101, 6-(4-chlorophenyl)-N-hydroxy-5,6,7,8-tetrahydronaphthalene-2-carboxamide] | 55%
CC(C)(C)C(=O)N[C@@H]1CCc2ccc(C(=O)NO)cc2C1 [Compound I-73, (7R)-7-[(2,2-dimethylpropanoyl)amino]-N-hydroxy-5,6,7,8-tetrahydronaphthalene-2-carboxamide] | 73%
COc1cccc(C(=O)NC2CCc3cc(C(=O)NO)ccc3C2)c1 (stereo not shown) [Compound I-112, N-hydroxy-6-[(3-methoxybenzoyl)amino]-5,6,7,8-tetrahydronaphthalene-2-carboxamide] | 87%
COc1ccccc1C(=O)NC1CCc2cc(C(=O)NO)ccc2C1 (stereo not shown) [Compound I-122, N-hydroxy-6-[(2-methoxybenzoyl)amino]-5,6,7,8-tetrahydronaphthalene-2-carboxamide] | 88%
O=C(NO)c1ccc2c(c1)CCC[C@@H]2NC(=O)c1cc(-c2ccc(F)cc2)n[nH]1 [Compound I-71, 3-(4-fluorophenyl)-N-{(1S)-6-[(hydroxyamino)carbonyl]-1,2,3,4-tetrahydronaphthalen-1-yl}-1H-pyrazole-5-carboxamide] | 60%
COc1ccc(C(=O)NC2CCc3ccc(C(=O)NO)cc3C2)cc1 (stereo not shown) [Compound I-77, N-hydroxy-7-[(4-methoxybenzoyl)amino]-5,6,7,8-tetrahydronaphthalene-2-carboxamide] | 92%
CN(C)CCOc1cccc(C2CCc3ccc(C(=O)NO)cc3C2)c1 (stereo not shown) [Compound I-194, 7-{3-[2-(dimethylamino)ethoxy]phenyl}-N-hydroxy-5,6,7,8-tetrahydronaphthalene-2-carboxamide] | 86%

Compound | inhibition at 0.412 µM
O=C(NO)c1ccc2c(c1)CC(NCc1ccc(Cl)cc1)CC2 (stereo not shown) [Compound I-76, 7-[(4-chlorobenzyl)amino]-N-hydroxy-5,6,7,8-tetrahydronaphthalene-2-carboxamide] | 80%
O=C(NO)c1ccc2c(c1)CCC(Oc1ccnc(NC(=O)C3CCNCC3)c1)C2 (stereo not shown) [Compound I-225, N-[4-({6-[(hydroxyamino)carbonyl]-1,2,3,4-tetrahydronaphthalen-2-yl}oxy)pyridin-2-yl]piperidine-4-carboxamide] | 95%
O=C(NO)c1ccc2c(c1)CCCC2NC(=O)C12CC3CC(CC(C3)C1)C2 (stereo not shown) [Compound I-21, N-{6-[(hydroxyamino)carbonyl]-1,2,3,4-tetrahydronaphthalen-1-yl}adamantane-1-carboxamide] | 20%
O=C(NO)c1ccc2c(c1)CCC(NC(=O)c1ccc3occc3c1)C2 (stereo not shown) [Compound I-54, N-{6-[(hydroxyamino)carbonyl]-1,2,3,4-tetrahydronaphthalen-2-yl}-1-benzofuran-5-carboxamide] | 87%
CC(C)(C)C(=O)NC1CCCc2cc(C(=O)NO)ccc21 (stereo not shown) [Compound I-6, 5-[(2,2-dimethylpropanoyl)amino]-N-hydroxy-5,6,7,8-tetrahydronaphthalene-2-carboxamide] | 18%
O=C(NO)c1ccc2c(c1)CC(NCc1ccncc1)CC2 (stereo not shown) [Compound I-85, N-hydroxy-7-[(pyridin-4-ylmethyl)amino]-5,6,7,8-tetrahydronaphthalene-2-carboxamide] | 75%
O=C(CC1C[C@@H]2CC[C@H]1C2)NC1CCCc2cc(C(=O)NO)ccc21 (stereo partly drawn) [Compound I-26, 5-{[(1S,4R)-bicyclo[2.2.1]hept-2-ylacetyl]amino}-N-hydroxy-5,6,7,8-tetrahydronaphthalene-2-carboxamide] | 21%
Cc1oc(S(=O)(=O)N2CCCC2)cc1C(=O)NC1CCCc2cc(C(=O)NO)ccc21 (stereo not shown) [Compound I-22, N-{6-[(hydroxyamino)carbonyl]-1,2,3,4-tetrahydronaphthalen-1-yl}-2-methyl-5-(pyrrolidin-1-ylsulfonyl)-3-furamide] | 28%
O=C(NO)c1ccc2c(c1)CCC(Oc1ccccc1)C2 (stereo not shown) [Compound I-229, N-hydroxy-6-phenoxy-5,6,7,8-tetrahydronaphthalene-2-carboxamide] | 92%
CC1(C(=O)NC2CCc3ccc(C(=O)NO)cc3C2)CCNCC1 (stereo not shown) [Compound I-114, N-{7-[(hydroxyamino)carbonyl]-1,2,3,4-tetrahydronaphthalen-2-yl}-4-methylpiperidine-4-carboxamide] | 82%
Cc1nc(C(F)(F)F)c(C(=O)NC2CCCc3cc(C(=O)NO)ccc32)s1 (stereo not shown) [Compound I-7, N-{6-[(hydroxyamino)carbonyl]-1,2,3,4-tetrahydronaphthalen-1-yl}-2-methyl-4-(trifluoromethyl)-1,3-thiazole-5-carboxamide] | 22%
O=C(NO)c1ccc2c(c1)CCCC2NC(=O)c1ccc(-c2ccccc2)cc1 (stereo not shown) [Compound I-34, N-{6-[(hydroxyamino)carbonyl]-1,2,3,4-tetrahydronaphthalen-1-yl}biphenyl-4-carboxamide] | 2%
CCc1cc(C(=O)NC2CCCc3cc(C(=O)NO)ccc32)n(C)n1 (stereo not shown) [Compound I-2, 3-ethyl-N-{6-[(hydroxyamino)carbonyl]-1,2,3,4-tetrahydronaphthalen-1-yl}-1-methyl-1H-pyrazole-5-carboxamide] | 35%
O=C(NO)c1ccc2c(c1)C1CCC2N1C(=O)c1cc2ccccc2o1 (stereo not shown) [Compound I-202, 9-(1-benzofuran-2-ylcarbonyl)-N-hydroxy-1,2,3,4-tetrahydro-1,4-epiminonaphthalene-6-carboxamide] | 19%
O=C(NO)c1ccc2c(c1)CCCC2NC(=O)C1CCCCC1 (stereo not shown) [Compound I-17, 5-[(cyclohexylcarbonyl)amino]-N-hydroxy-5,6,7,8-tetrahydronaphthalene-2-carboxamide] | 19%
